Laboratory results taken from paper PMC4851326, “Pharmacologic Comparison of Clinical Neutral Endopeptidase Inhibitors in a Rat Model of Acute Secretory Diarrhea” (The Journal of Pharmacology and Experimental Therapeutics, 2016).
Each block holds one compound with its values, some of them ahead of it.

Columns and labels:
[1] = target: T1, NEP (Homo sapiens, UniProt P08473); test: Purified peptidase assay, NEP; format: biochemical
T1 construct: purchased R&D Systems (Minneapolis, MN)
Description: Purified recombinant human enzymes were purchased from R&D Systems (Minneapolis, MN). […] Each substrate was diluted to 100 μM in the assay buffer recommended for each enzyme by the supplier. […] To these, 5 μl of diluted enzyme was added, followed by 10 μl of the quenched peptide substrate. The plates were incubated at 37°C until at least 10% substrate turnover or 5 μM product had formed. Fluorescence was measured using a Tecan Safire II (Excitation 320 nm/Emission 420 nm). Each plate included a standard curve of reaction product and positive (no enzyme) and negative (dimethyl sulfoxide vehicle) controls. Dose-response data were plotted and inhibition values (IC50) determined by linear regression analysis using GraphPad Prism (GraphPad Software, La Jolla, CA).

[2] = system: intestinal motility; test: Charcoal meal model of intestinal motility; format: in vivo, rat; settings: 30 minutes before charcoal meal, distance traveled in 20 minutes
Description: Rats were fasted for 18 hours before the experiment, with free access to water. Animals were weighed, and vehicle or compounds were administered by oral gavage. […] After 30 minutes, each animal received standard charcoal meal (10% suspension of activated charcoal in 5% gum arabic) by oral gavage (5 ml/kg). Animals were given access to food within 1 minute and sacrificed 20 minutes after the charcoal meal. The intestines were carefully removed. Motility was calculated as the measured distance traveled by the charcoal as a percentage of total length from pyloric sphincter to ileocecal junction.

T1 sequence (P08473 whole entry): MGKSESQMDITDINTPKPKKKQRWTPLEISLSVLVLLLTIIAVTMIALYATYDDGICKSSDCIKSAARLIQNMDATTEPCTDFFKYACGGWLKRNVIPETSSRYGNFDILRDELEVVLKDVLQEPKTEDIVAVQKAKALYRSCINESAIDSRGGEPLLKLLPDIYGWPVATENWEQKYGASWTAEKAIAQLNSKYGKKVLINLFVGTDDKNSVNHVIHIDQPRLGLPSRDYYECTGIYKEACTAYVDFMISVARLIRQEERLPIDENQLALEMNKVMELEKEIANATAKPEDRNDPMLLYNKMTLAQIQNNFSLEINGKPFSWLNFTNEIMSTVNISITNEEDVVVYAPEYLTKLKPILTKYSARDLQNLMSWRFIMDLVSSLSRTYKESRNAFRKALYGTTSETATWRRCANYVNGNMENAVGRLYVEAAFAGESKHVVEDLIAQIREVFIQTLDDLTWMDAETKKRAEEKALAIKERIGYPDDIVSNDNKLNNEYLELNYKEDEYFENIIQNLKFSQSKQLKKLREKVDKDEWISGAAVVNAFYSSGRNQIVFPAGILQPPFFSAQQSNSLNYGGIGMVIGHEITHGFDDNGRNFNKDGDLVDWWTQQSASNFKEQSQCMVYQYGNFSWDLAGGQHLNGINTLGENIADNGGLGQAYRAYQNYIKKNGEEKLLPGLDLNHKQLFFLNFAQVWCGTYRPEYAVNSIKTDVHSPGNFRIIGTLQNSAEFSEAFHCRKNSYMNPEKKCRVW

IC50 ([1]; recombinant purified human enzyme, for prodrugs the active form was tested): < 100 nM
NEP selectivity over the other peptidases ([1]; versus panel of ACE, ECE-1, ECE-2, IDE, APN, PSA): > 60 fold
SMILES: COCCOC[C@H](CC1(C(=O)N[C@H]2CC[C@@H](C(=O)O)CC2)CCCC1)C(=O)O [Candoxatrilat, candoxatrilat]

Effect on intestinal transit (charcoal meal test) ([2]; 30 mg/kg oral): no effect
Effect on intestinal transit (charcoal meal test) ([2]; 100 mg/kg oral): significant but very modest effect
SMILES: CCOC(=O)[C@H](C)C[C@@H](Cc1ccc(-c2ccccc2)cc1)NC(=O)CCC(=O)O [Sacubitril, 4-(((2S,4R)-1-([1,1′-biphenyl]-4-yl)-5-ethoxy-4-methyl-5-oxopentan-2-yl)amino)-4-oxobutanoic acid]

SMILES: CN(C)C(=O)C(CCN1CCC(O)(c2ccc(Cl)cc2)CC1)(c1ccccc1)c1ccccc1 [loperamide]
Effect on intestinal transit (charcoal meal test) ([2]; oral, dose not given (Fig. 5)): greatly slowed transit
